Test results published in EP2607478A1, “Phenanthroline treated MSC” (Universiteit Twente, priority 2011, dated 2013).

Assays:
[1] = tested on: male C57/BL6 mice; assay: In vivo murine matrigel plug assay; conditions: matrigel plug with DFO (150 uM) or PHE (200 uM), subcutaneous, 7 days, versus PBS
Experimental: In vivo angiogenesis analysis was performed using a matrigel plug assay in male C57/BL6 mice (age 8 weeks)(Charles River). Growth factor reduced matrigel (0.5 ml) (BD Biosciences) was injected into the subcutaneous space on the dorsal side of mice on both the left and right flank. […] Mice were sacrificed 7 days post-implantation. Matrigel plugs were excised and processed for histological analysis. Paraffin sections (5 um) were stained with Hematoxylin, Phloxine and Saffron (HPS) or anti-CD31 (PECAM, Abcam, Cambridge, UK). Vascular ingrowth was scored in a double blinded fashion and quantified using the following method: every individual section was scored for the degree of ingrowth, using five different categories of ingrowth (1=minimal ingrowth at the border of the plug, 5=capillary ingrowth throughout the total plug), and the mean ingrowth score per group was defined (6 sections per plug, 7 mice per group). The endothelial nature of the infiltrating cells was confirmed by the CD31 staining,
Data was analyzed using one-way ANOVA followed by Tukey's multiple comparison's test (P<0,05). For the analysis of the ingrowth in the matrigel plug statistical analysis was performed using ANOVA and unpaired T test.

[2] = tested on: immortalized MSC cell line; assay: Screen for hypoxia mimics with hypoxia response element reporter in immortalized MSC; assay type: cell-based; conditions: clonally expanded immortalized MSC cell line
Description: Because previous screening methods were based mostly on cancer cells and the results thereof can not necessarily be extrapolated to MSC, a novel screening method was developed, based on an immortalized MSC. Using this screening method, we quickly screened a large panel of potential compounds for effects on MSC. Such screening method is useful for screening a large panel of compound for their ability to modulate (i.e. increase or decrease) an angiogenic capacity of a MSC. […]
It is possible to use for instance an (immortalized) MSC and transfect it with a HRE-luciferase construct as described in Said et al (56) or with a 5HRE-ODD-luc construct described in Saha et al (57). Detection of transcription of the reporter gene is then easily achieved by measuring luciferase activity (luminescence) of the cells after contacting said MSC with the compound. […] As a consequence, reporter gene expression is increased, which can be detected, in case of luciferase, by measuring an increase in luminescence in these cells. Vice versa, decreased luminescence is indicative for a compound able to inhibit angiogenesis, which compound may subsequently be used for anti-angiogenic therapy, for instance in anti-tumor therapy. […]

Row | SMILES | capillary ingrowth [1] | ability to mimic hypoxia in MSCs [2]
1 | c1cnc2c(c1)ccc1cccnc12 [PHE, 1, 10-phenanthroline] | significantly increased capillary ingrowth | able to mimic hypoxia in MSCs
2 | CC(=O)N(O)CCCCCNC(=O)CCC(=O)N(O)CCCCCNC(=O)CCC(=O)N(O)CCCCCN [DFO, reference compound] | significantly increased capillary ingrowth | 
